Assay results from ChEMBL document CHEMBL3244053, “Structural modification study of bis(substituted aminoalkylamino)anthraquinones. An evaluation of the relationship of the [2-[(2-hydroxyethyl)amino]ethyl]amino side chain with antineoplastic activity” (1979).
Active and inactive are the calls of the source. No cut-off for these calls is given here.

Assays:
B16 [1] = experiment: Antineoplastic activity against mouse B16 cells allografted in BDF1 mouse assessed as survival at 2 mg/kg qd for 9 days; format: functional, organism-based; design: dose 2 mg/kg
B16 [2] = experiment: Antineoplastic activity against mouse B16 cells allografted in BDF1 mouse at 2 mg/kg qd for 9 days relative to control; format: functional
B16 [3] = experiment: Antineoplastic activity against mouse B16 cells allografted in BDF1 mouse assessed as survival at 1 mg/kg qd for 9 days; format: functional, organism-based; design: dose 1 mg/kg
B16 [4] = experiment: Antineoplastic activity against mouse B16 cells allografted in BDF1 mouse at 1 mg/kg qd for 9 days relative to control; format: functional
L1210 [5] = experiment: Antineoplastic activity against mouse L1210 cells allografted in CDF1 mouse assessed as survival at 4 mg/kg qd for 9 days; format: functional, organism-based; design: dose 4 mg/kg
L1210 [6] = experiment: Antineoplastic activity against mouse L1210 cells allografted in CDF1 mouse at 4 mg/kg qd for 9 days relative to control; format: functional
L1210 [7] = experiment: Antineoplastic activity against mouse L1210 cells allografted in CDF1 mouse assessed as survival at 2 mg/kg qd for 9 days; format: functional, organism-based; design: dose 2 mg/kg
L1210 [8] = experiment: Antineoplastic activity against mouse L1210 cells allografted in CDF1 mouse at 2 mg/kg qd for 9 days relative to control; format: functional
P388 [9] = experiment: Antineoplastic activity against mouse P388 cells allografted in CDF1 mouse assessed as survival at 2 mg/kg qd for 9 days; format: functional, organism-based; design: dose 2 mg/kg
P388 [10] = experiment: Antineoplastic activity against mouse P388 cells allografted in CDF1 mouse at 2 mg/kg qd for 9 days relative to control; format: functional
P388 [11] = experiment: Antineoplastic activity against mouse P388 cells allografted in CDF1 mouse assessed as survival at 1 mg/kg qd for 9 days; format: functional, organism-based; design: dose 1 mg/kg
P388 [12] = experiment: Antineoplastic activity against mouse P388 cells allografted in CDF1 mouse at 1 mg/kg qd for 9 days relative to control; format: functional
B16 [13] = experiment: Antineoplastic activity against mouse B16 cells allografted in BDF1 mouse assessed as survival at 16 mg/kg qd for 9 days; format: functional, organism-based; design: dose 16 mg/kg
B16 [14] = experiment: Antineoplastic activity against mouse B16 cells allografted in BDF1 mouse at 16 mg/kg qd for 9 days relative to control; format: functional
B16 [15] = experiment: Antineoplastic activity against mouse B16 cells allografted in BDF1 mouse assessed as survival at 8 mg/kg qd for 9 days; format: functional, organism-based; design: dose 8 mg/kg
B16 [16] = experiment: Antineoplastic activity against mouse B16 cells allografted in BDF1 mouse at 8 mg/kg qd for 9 days relative to control; format: functional
B16 [17] = experiment: Antineoplastic activity against mouse B16 cells allografted in BDF1 mouse assessed as survival at 4 mg/kg qd for 9 days; format: functional, organism-based; design: dose 4 mg/kg
B16 [18] = experiment: Antineoplastic activity against mouse B16 cells allografted in BDF1 mouse at 4 mg/kg qd for 9 days relative to control; format: functional
Colon 26 [19] = experiment: Antineoplastic activity against mouse Colon 26 cells allografted in CDF1 mouse assessed as survival at 8 mg/kg qd for 9 days; format: functional, organism-based; design: dose 8 mg/kg
Colon 26 [20] = experiment: Antineoplastic activity against mouse Colon 26 cells allografted in CDF1 mouse at 8 mg/kg qd for 9 days relative to control; format: functional
Colon 26 [21] = experiment: Antineoplastic activity against mouse Colon 26 cells allografted in CDF1 mouse assessed as survival at 4 mg/kg qd for 9 days; format: functional, organism-based; design: dose 4 mg/kg
Colon 26 [22] = experiment: Antineoplastic activity against mouse Colon 26 cells allografted in CDF1 mouse at 4 mg/kg qd for 9 days relative to control; format: functional
Colon 26 [23] = experiment: Antineoplastic activity against mouse Colon 26 cells allografted in CDF1 mouse assessed as survival at 2 mg/kg qd for 9 days; format: functional, organism-based; design: dose 2 mg/kg
Colon 26 [24] = experiment: Antineoplastic activity against mouse Colon 26 cells allografted in CDF1 mouse at 2 mg/kg qd for 9 days relative to control; format: functional
L1210 [25] = experiment: Antineoplastic activity against mouse L1210 cells allografted in CDF1 mouse assessed as survival at 16 mg/kg qd for 9 days; format: functional, organism-based; design: dose 16 mg/kg
L1210 [26] = experiment: Antineoplastic activity against mouse L1210 cells allografted in CDF1 mouse at 16 mg/kg qd for 9 days relative to control; format: functional
L1210 [27] = experiment: Antineoplastic activity against mouse L1210 cells allografted in CDF1 mouse assessed as survival at 8 mg/kg qd for 9 days; format: functional, organism-based; design: dose 8 mg/kg
L1210 [28] = experiment: Antineoplastic activity against mouse L1210 cells allografted in CDF1 mouse at 8 mg/kg qd for 9 days relative to control; format: functional
P388 [29] = experiment: Antineoplastic activity against mouse P388 cells allografted in CDF1 mouse assessed as survival at 16 mg/kg qd for 9 days; format: functional, organism-based; design: dose 16 mg/kg
P388 [30] = experiment: Antineoplastic activity against mouse P388 cells allografted in CDF1 mouse at 16 mg/kg qd for 9 days relative to control; format: functional
P388 [31] = experiment: Antineoplastic activity against mouse P388 cells allografted in CDF1 mouse assessed as survival at 8 mg/kg qd for 9 days; format: functional, organism-based; design: dose 8 mg/kg
P388 [32] = experiment: Antineoplastic activity against mouse P388 cells allografted in CDF1 mouse at 8 mg/kg qd for 9 days relative to control; format: functional
P388 [33] = experiment: Antineoplastic activity against mouse P388 cells allografted in CDF1 mouse assessed as survival at 4 mg/kg qd for 9 days; format: functional, organism-based; design: dose 4 mg/kg
P388 [34] = experiment: Antineoplastic activity against mouse P388 cells allografted in CDF1 mouse at 4 mg/kg qd for 9 days relative to control; format: functional
B16 [35] = experiment: Antineoplastic activity against mouse B16 cells allografted in BDF1 mouse assessed as survival at 200 mg/kg qd for 9 days; format: functional, organism-based; design: dose 200 mg/kg
B16 [36] = experiment: Antineoplastic activity against mouse B16 cells allografted in BDF1 mouse at 200 mg/kg qd for 9 days relative to control; format: functional
B16 [37] = experiment: Antineoplastic activity against mouse B16 cells allografted in BDF1 mouse assessed as survival at 100 mg/kg qd for 9 days; format: functional, organism-based; design: dose 100 mg/kg
B16 [38] = experiment: Antineoplastic activity against mouse B16 cells allografted in BDF1 mouse at 100 mg/kg qd for 9 days relative to control; format: functional
B16 [39] = experiment: Antineoplastic activity against mouse B16 cells allografted in BDF1 mouse assessed as survival at 50 mg/kg qd for 9 days; format: functional, organism-based; design: dose 50 mg/kg
B16 [40] = experiment: Antineoplastic activity against mouse B16 cells allografted in BDF1 mouse at 50 mg/kg qd for 9 days relative to control; format: functional
Colon 26 [41] = experiment: Antineoplastic activity against mouse Colon 26 cells allografted in CDF1 mouse assessed as survival at 20 mg/kg qd for 9 days; format: functional, organism-based; design: dose 20 mg/kg
Colon 26 [42] = experiment: Antineoplastic activity against mouse Colon 26 cells allografted in CDF1 mouse at 20 mg/kg qd for 9 days relative to control; format: functional
Colon 26 [43] = experiment: Antineoplastic activity against mouse Colon 26 cells allografted in CDF1 mouse assessed as survival at 80 mg/kg qd for 9 days; format: functional, organism-based; design: dose 80 mg/kg
Colon 26 [44] = experiment: Antineoplastic activity against mouse Colon 26 cells allografted in CDF1 mouse at 80 mg/kg qd for 9 days relative to control; format: functional
Colon 26 [45] = experiment: Antineoplastic activity against mouse Colon 26 cells allografted in CDF1 mouse assessed as survival at 40 mg/kg qd for 9 days; format: functional, organism-based; design: dose 40 mg/kg
Colon 26 [46] = experiment: Antineoplastic activity against mouse Colon 26 cells allografted in CDF1 mouse at 40 mg/kg qd for 9 days relative to control; format: functional
L1210 [47] = experiment: Antineoplastic activity against mouse L1210 cells allografted in CDF1 mouse assessed as survival at 160 mg/kg qd for 9 days; format: functional, organism-based; design: dose 160 mg/kg
L1210 [48] = experiment: Antineoplastic activity against mouse L1210 cells allografted in CDF1 mouse at 160 mg/kg qd for 9 days relative to control; format: functional
L1210 [49] = experiment: Antineoplastic activity against mouse L1210 cells allografted in CDF1 mouse assessed as survival at 80 mg/kg qd for 9 days; format: functional, organism-based; design: dose 80 mg/kg
L1210 [50] = experiment: Antineoplastic activity against mouse L1210 cells allografted in CDF1 mouse at 80 mg/kg qd for 9 days relative to control; format: functional
L1210 [51] = experiment: Antineoplastic activity against mouse L1210 cells allografted in CDF1 mouse assessed as survival at 40 mg/kg qd for 9 days; format: functional, organism-based; design: dose 40 mg/kg
L1210 [52] = experiment: Antineoplastic activity against mouse L1210 cells allografted in CDF1 mouse at 40 mg/kg qd for 9 days relative to control; format: functional
P388 [53] = experiment: Antineoplastic activity against mouse P388 cells allografted in CDF1 mouse assessed as survival at 80 mg/kg qd for 9 days; format: functional, organism-based; design: dose 80 mg/kg
P388 [54] = experiment: Antineoplastic activity against mouse P388 cells allografted in CDF1 mouse at 80 mg/kg qd for 9 days relative to control; format: functional
P388 [55] = experiment: Antineoplastic activity against mouse P388 cells allografted in CDF1 mouse assessed as survival at 40 mg/kg qd for 9 days; format: functional, organism-based; design: dose 40 mg/kg
P388 [56] = experiment: Antineoplastic activity against mouse P388 cells allografted in CDF1 mouse at 40 mg/kg qd for 9 days relative to control; format: functional
P388 [57] = experiment: Antineoplastic activity against mouse P388 cells allografted in CDF1 mouse assessed as survival at 30 mg/kg qd for 9 days; format: functional, organism-based; design: dose 30 mg/kg
P388 [58] = experiment: Antineoplastic activity against mouse P388 cells allografted in CDF1 mouse at 30 mg/kg qd for 9 days relative to control; format: functional

`O=C1c2ccccc2C(=O)c2c(NCCNCCO)ccc(NCCNCCO)c21` [AMETANTRONE] was tested, and the Activity (B16 [1]) was “Active”, the T/C (B16 [2]) was 172% and the Activity (B16 [3]) was “Active”. The T/C (B16 [4]) was 151%, the Activity (L1210 [5]) was “Active” and the T/C (L1210 [6]) was 193%. The Activity (L1210 [7]) was “Active”, the T/C (L1210 [8]) was 180% and the Activity (P388 [9]) was “Active”. For the same molecule, the T/C (P388 [10]) was 200%, the Activity (P388 [11]) was “Active” and the T/C (P388 [12]) was 155%. For the same molecule, the Activity (B16 [13]) was “Active”, the T/C (B16 [14]) was 225% and the Activity (B16 [15]) was “Active”. For the same molecule, the T/C (B16 [16]) was 204%, the Activity (B16 [17]) was “Active” and the T/C (B16 [18]) was 194%. The Activity (Colon 26 [19]) was “Active”, the T/C (Colon 26 [20]) was 201% and the Activity (Colon 26 [21]) was “Active”. The T/C (Colon 26 [22]) was 177%, the Activity (Colon 26 [23]) was “Active” and the T/C (Colon 26 [24]) was 132%. For the same molecule, the Activity (L1210 [25]) was “Active”, the T/C (L1210 [26]) was 234% and the Activity (L1210 [27]) was “Active”. The T/C (L1210 [28]) was 288%, the Activity (P388 [29]) was “Active” and the T/C (P388 [30]) was 321%. For the same molecule, the Activity (P388 [31]) was “Active”, the T/C (P388 [32]) was 254% and the Activity (P388 [33]) was “Active”. It also gave a T/C (P388 [34]) of 219%.
For `CN(C)CCNc1ccc(O)c2c1C(=O)c1ccccc1C2=O`, the Activity (B16 [35]) was “Active”, the T/C (B16 [36]) was 156% and the Activity (B16 [37]) was “Active”. For the same molecule, the T/C (B16 [38]) was 145%, the Activity (B16 [39]) was “Active” and the T/C (B16 [40]) was 110%. The Activity (Colon 26 [41]) was “Active”, the T/C (Colon 26 [42]) was 104% and the Activity (Colon 26 [43]) was “Active”. For the same molecule, the T/C (Colon 26 [44]) was 115%, the Activity (Colon 26 [45]) was “Active” and the T/C (Colon 26 [46]) was 135%. For the same molecule, the Activity (L1210 [47]) was “Active”, the T/C (L1210 [48]) was 139% and the Activity (L1210 [49]) was “Active”. For the same molecule, the T/C (L1210 [50]) was 122%, the Activity (L1210 [51]) was “Active” and the T/C (L1210 [52]) was 107%. The Activity (P388 [53]) was “Active”, the T/C (P388 [54]) was 153% and the Activity (P388 [55]) was “Active”. For the same molecule, the T/C (P388 [56]) was 124%, the Activity (P388 [57]) was “Active” and the T/C (P388 [58]) was 100%.
